target: human TRPA1 (Homo sapiens (Human), UniProt O75762); test: hTRPA1 CHO Ca2+ AUC EVO (IC50); FLIPR Tetra block of cinnamaldehyde induced calcium influx; assay type: cell-based; settings: Table 3; CHO cells expressing TRPA1; 75 uM cinnamaldehyde (~EC80) as agonist
Method: IC50 ([…]) of compounds on the human and rat TRPA1 channels were determined using a FLIPR Tetra instrument. CHO cells expressing TRPA1 were plated into 384-well plates, incubated overnight at 37° C., and loaded with BD calcium indicator dye for 1 hr at 37° C. followed by 15 minutes. at room temperature. The assay buffer was Hank's Balanced Salt Solution (HBSS) containing 20 mM HEPES (pH readjusted to 7.4) along with 0.02% BSA.
Following dye load and plate cool down, compounds were added to the cells using FLIPR Tetra. Plates were then incubated with compounds for 20 minutes at room temperature prior to adding agonist. Following this incubation, ˜EC80 concentration of cinnamaldehyde (75 uM for human TRPA1 and 45 uM for rat TRPA1) was added to active the channels and block of cinnamaldehyde induced calcium influx was measured.
IC50 values were fit with a standard Hill function, keeping the Hill coefficient (n) fixed to 1.5. Fixing the Hill coefficient will generally reduce variability of the IC50 determination. The IC50 values were individually examined to make sure the MIN and MAX points were set correctly prior to validation of the results.

Chain of human TRPA1 (O75762 whole entry): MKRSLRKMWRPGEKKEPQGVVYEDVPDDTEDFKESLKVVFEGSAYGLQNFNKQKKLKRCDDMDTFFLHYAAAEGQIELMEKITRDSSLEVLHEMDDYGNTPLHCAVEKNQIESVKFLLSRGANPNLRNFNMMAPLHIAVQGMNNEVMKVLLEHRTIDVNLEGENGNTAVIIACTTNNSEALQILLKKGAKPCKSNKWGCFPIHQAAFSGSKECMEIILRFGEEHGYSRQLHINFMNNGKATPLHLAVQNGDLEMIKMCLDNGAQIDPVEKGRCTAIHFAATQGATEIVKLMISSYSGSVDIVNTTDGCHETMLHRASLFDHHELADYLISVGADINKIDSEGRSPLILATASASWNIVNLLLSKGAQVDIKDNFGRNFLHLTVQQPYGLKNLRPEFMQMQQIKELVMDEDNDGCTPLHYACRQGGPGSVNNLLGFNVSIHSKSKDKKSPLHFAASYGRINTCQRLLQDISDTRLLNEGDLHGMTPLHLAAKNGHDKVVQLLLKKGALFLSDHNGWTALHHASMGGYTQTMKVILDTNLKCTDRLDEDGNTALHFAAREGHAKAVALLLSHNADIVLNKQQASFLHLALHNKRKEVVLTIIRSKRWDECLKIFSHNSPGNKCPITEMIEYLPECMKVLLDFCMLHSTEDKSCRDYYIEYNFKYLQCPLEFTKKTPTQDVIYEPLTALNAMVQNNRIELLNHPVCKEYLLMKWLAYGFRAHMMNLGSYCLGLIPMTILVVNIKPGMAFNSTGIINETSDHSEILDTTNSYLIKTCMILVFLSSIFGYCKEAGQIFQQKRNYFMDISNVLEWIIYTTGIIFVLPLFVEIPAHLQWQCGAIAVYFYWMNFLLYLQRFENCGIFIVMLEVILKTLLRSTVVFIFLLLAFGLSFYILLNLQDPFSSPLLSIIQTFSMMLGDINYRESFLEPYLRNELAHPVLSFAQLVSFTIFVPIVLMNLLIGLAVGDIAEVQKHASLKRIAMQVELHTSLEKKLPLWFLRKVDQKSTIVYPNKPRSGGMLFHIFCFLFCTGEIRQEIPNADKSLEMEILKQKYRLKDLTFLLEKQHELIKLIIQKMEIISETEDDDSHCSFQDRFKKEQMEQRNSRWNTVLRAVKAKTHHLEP

Row | Structure (SMILES) | IC50 [nM]
1 | O=C(NCc1cc(-c2cnc(C(F)(F)F)nc2)ncc1OC(F)(F)F)[C@@H]1C2CC(C2)N1S(=O)(=O)c1ccc(F)cc1 [compound 15, (2S)-3-(4-fluorophenyl)sulfonyl-N-[[5-(trifluoromethoxy)-2-[2-(trifluoromethyl)pyrimidin-5-yl]-4-pyridyl]methyl]-3-azabicyclo[2.1.1]hexane-2-carboxamide] | 2.77
2 | O=C(NCc1cc(-c2cnc(C(F)(F)F)nc2)ccc1F)[C@@H]1C2CC(C2)N1S(=O)(=O)c1ccc(F)cc1 [compound 16, (2S)-3-(4-fluorophenyl)sulfonyl-N-[[2-fluoro-5-[2-(trifluoromethyl)pyrimidin-5-yl]phenyl]methyl]-3-azabicyclo[2.1.1]hexane-2-carboxamide] | 9.89
3 | O=C(NCc1cc(-c2ccc(C(F)(F)F)nc2)ccc1F)[C@@H]1C2CC(C2)N1S(=O)(=O)c1ccc(F)cc1 [compound 17, (2S)-3-(4-fluorophenyl)sulfonyl-N-[[2-fluoro-5-[6-(trifluoromethyl)-3-pyridyl]phenyl]methyl]-3-azabicyclo[2.1.1]hexane-2-carboxamide] | 6.06
4 | Cn1nc(C(F)(F)F)cc1-c1ccc(F)c(CNC(=O)[C@@H]2C3CC(C3)N2S(=O)(=O)c2ccc(F)cc2)c1 [compound 18, (2S)-N-[[2-fluoro-5-[2-methyl-5-(trifluoromethyl)pyrazol-3-yl]phenyl]methyl]-3-(4-fluorophenyl)sulfonyl-3-azabicyclo[2.1.1]hexane-2-carboxamide] | 15.7
5 | O=C(NCc1cc(F)cc(-c2cnc(C(F)(F)F)nc2)c1)[C@@H]1C2CC(C2)N1S(=O)(=O)c1ccc(F)cc1 [compound 19, (2S)-3-(4-fluorophenyl)sulfonyl-N-[[3-fluoro-5-[2-(trifluoromethyl)pyrimidin-5-yl]phenyl]methyl]-3-azabicyclo[2.1.1]hexane-2-carboxamide] | 8.97
6 | O=C(NCc1cc(F)cc(-c2ccc(C(F)(F)F)nc2)c1)[C@@H]1C2CC(C2)N1S(=O)(=O)c1ccc(F)cc1 [compound 20, (2S)-3-(4-fluorophenyl)sulfonyl-N-[[3-fluoro-5-[6-(trifluoromethyl)-3-pyridyl]phenyl]methyl]-3-azabicyclo[2.1.1]hexane-2-carboxamide] | 6.11

Now from value to compound:

Row | IC50 [nM] | Structure (SMILES)
7 | 27.6 | Cn1nc(C(F)(F)F)cc1-c1cc(F)cc(CNC(=O)[C@@H]2C3CC(C3)N2S(=O)(=O)c2ccc(F)cc2)c1 [compound 21, (2S)-N-[[3-fluoro-5-[2-methyl-5-(trifluoromethyl)pyrazol-3-yl]phenyl]methyl]-3-(4-fluorophenyl)sulfonyl-3-azabicyclo[2.1.1]hexane-2-carboxamide]
8 | 4.84 | O=C(NCc1cn(-c2cnc(C(F)(F)F)nc2)nc1C(F)(F)F)[C@@H]1C2CC(C2)N1S(=O)(=O)c1ccc(F)cc1 [compound 29, (2S)-3-(4-fluorophenyl)sulfonyl-N-[[3-(trifluoromethyl)-1-[2-(trifluoromethyl)pyrimidin-5-yl]pyrazol-4-yl]methyl]-3-azabicyclo[2.1.1]hexane-2-carboxamide]
9 | 1.18 | O=C(NCc1cc(-c2cnc(C(F)(F)F)nc2)nc(C(F)(F)F)n1)[C@@H]1C2CC(C2)N1S(=O)(=O)c1ccc(F)cc1 [compound 30, (2S)-3-(4-fluorophenyl)sulfonyl-N-[[2-(trifluoromethyl)-6-[2-(trifluoromethyl)pyrimidin-5-yl]pyrimidin-4-yl]methyl]-3-azabicyclo[2.1.1]hexane-2-carboxamide]
10 | 1.85 | O=C(NCc1cc(-c2cnc(C(F)(F)F)nc2)ncc1C(F)(F)F)[C@@H]1C2CC(C2)N1S(=O)(=O)c1cc2cc(F)ccc2o1 [compound 31, (2S)-3-(5-fluorobenzofuran-2-yl)sulfonyl-N-[[5-(trifluoromethyl)-2-[2-(trifluoromethyl)pyrimidin-5-yl]-4-pyridyl]methyl]-3-azabicyclo[2.1.1]hexane-2-carboxamide]
11 | 7.24 | O=C(NCc1cc(-c2cnc(C(F)(F)F)nc2)cc(C2CC2)n1)[C@@H]1C2CC(C2)N1S(=O)(=O)c1ccc(F)cc1 [compound 32, (2S)-N-[[6-cyclopropyl-4-[2-(trifluoromethyl)pyrimidin-5-yl]-2-pyridyl]methyl]-3-(4-fluorophenyl)sulfonyl-3-azabicyclo[2.1.1]hexane-2-carboxamide]
12 | 3.55 | O=C(NCc1cc(-c2cnc(C(F)(F)F)nc2)nc(C2CC2)c1)[C@@H]1C2CC(C2)N1S(=O)(=O)c1ccc(F)cc1 [compound 33, (2S)-N-[[2-cyclopropyl-6-[2-(trifluoromethyl)pyrimidin-5-yl]-4-pyridyl]methyl]-3-(4-fluorophenyl)sulfonyl-3-azabicyclo[2.1.1]hexane-2-carboxamide]
13 | 19.1 | COc1nn(-c2cnc(C(F)(F)F)nc2)cc1CNC(=O)[C@@H]1C2CC(C2)N1S(=O)(=O)c1ccc(F)cc1 [compound 34, (2S)-3-(4-fluorophenyl)sulfonyl-N-[[3-methoxy-1-[2-(trifluoromethyl)pyrimidin-5-yl]pyrazol-4-yl]methyl]-3-azabicyclo[2.1.1]hexane-2-carboxamide]
14 | 4.24 | O=C(NCc1cc(-c2cnc(C(F)(F)F)nc2)nc(OCC(F)(F)F)n1)[C@@H]1C2CC(C2)N1S(=O)(=O)c1ccc(F)cc1 [compound 35, (2S)-3-(4-fluorophenyl)sulfonyl-N-[[2-(2,2,2-trifluoroethoxy)-6-[2-(trifluoromethyl)pyrimidin-5-yl]pyrimidin-4-yl]methyl]-3-azabicyclo[2.1.1]hexane-2-carboxamide]

From patent publication US10597383B2, “Bicyclic proline compounds” (Genentech, Inc., priority 2016, dated 2020)
